Values joined by “and” are separate entries in the source; they are usually repeats but may differ in a detail not shown here. Equal values may be shown once.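 Five concentrations, 48 hours, 96-well plates. TGI is the concentration that stops growth completely.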
Assays:
Assay in all cases: NCI tumour cell line growth inhibition, 48 h
[1] = tested on: A498 renal
[2] = tested on: A549 NSCLC
[3] = tested on: CAKI-1 renal
[4] = tested on: CCRF-CEM leukemia
[5] = tested on: COLO 205 colon
[6] = tested on: DLD-1 colon
[7] = tested on: DMS 273 small cell lung
[8] = tested on: EKVX NSCLC
[9] = tested on: HCC-2998 colon
[10] = tested on: HCT-116 colon
[11] = tested on: HCT-15 colon
[12] = tested on: HL-60(TB) leukemia
[13] = tested on: HOP-18 NSCLC
[14] = tested on: HOP-62 NSCLC
[15] = tested on: HOP-92 NSCLC
[16] = tested on: HT29 colon
[17] = tested on: IGROV1 ovarian
[18] = tested on: K-562 leukemia
[19] = tested on: KM12 colon
[20] = tested on: KM20L2 colon
[21] = tested on: LOX IMVI melanoma
[22] = tested on: M19-MEL melanoma
[23] = tested on: MALME-3M melanoma
[24] = tested on: MCF7 breast
[25] = tested on: MOLT-4 leukemia
[26] = tested on: NCI-H226 lung
[27] = tested on: NCI-H23 lung
[28] = tested on: NCI-H460 lung
[29] = tested on: NCI-H522 lung
[30] = tested on: NCI/ADR-RES ovarian
[31] = tested on: OVCAR-3 ovarian
[32] = tested on: OVCAR-4 ovarian
[33] = tested on: OVCAR-5 ovarian
[34] = tested on: OVCAR-8 ovarian
[35] = tested on: P388 leukemia
[36] = tested on: P388/ADR leukemia
[37] = tested on: RPMI-8226 leukemia
[38] = tested on: RXF 393 renal
[39] = tested on: SF-268 CNS
[40] = tested on: SF-295 CNS
[41] = tested on: SF-539 CNS
[42] = tested on: SK-MEL-2 melanoma
[43] = tested on: SK-MEL-28 melanoma
[44] = tested on: SK-MEL-5 melanoma
[45] = tested on: SK-OV-3 ovarian
[46] = tested on: SN12C renal
[47] = tested on: SN12K1 renal
[48] = tested on: SNB-19 CNS
[49] = tested on: SNB-75 CNS
[50] = tested on: SNB-78 CNS
[51] = tested on: SW-620 colon
[52] = tested on: U251 CNS
[53] = tested on: UACC-257 melanoma
[54] = tested on: UACC-62 melanoma
[55] = tested on: UO-31 renal
[56] = tested on: XF 498 CNS
[57] = tested on: 786-0 renal
[58] = tested on: ACHN renal
[59] = tested on: BT-549 breast
[60] = tested on: DMS 114 small cell lung
[61] = tested on: DU-145 prostate
[62] = tested on: HS 578T breast
[63] = tested on: LXFL 529 NSCLC
[64] = tested on: M14 melanoma
[65] = tested on: MDA-MB-231 breast
[66] = tested on: MDA-MB-435
[67] = tested on: PC-3 prostate
[68] = tested on: RXF-631 renal
[69] = tested on: SR leukemia
[70] = tested on: T-47D breast
[71] = tested on: TK-10 renal

SMILES: COc1ccc(Cc2nn(C3OC(COC(C)=O)C(OC(C)=O)C(OC(C)=O)C3OC(C)=O)c(=S)n(-c3ccc(OC)cc3)c2=O)cc1 (stereo unspecified)
- TGI [1]: > 100 µM
- TGI [2]: > 100 µM
- TGI [3]: > 100 µM
- TGI [4]: > 100 µM
- TGI [5]: > 100 µM
- TGI [6]: > 100 µM
- TGI [7]: > 100 µM
- TGI [8]: > 100 µM
- TGI [9]: > 100 µM
- TGI [10]: > 100 µM
- TGI [11]: > 100 µM
- TGI [12]: > 100 µM
- TGI [13]: > 100 µM
- TGI [14]: > 100 µM
- TGI [15]: > 100 µM
- TGI [16]: > 100 µM
- TGI [17]: > 100 µM
- TGI [18]: > 100 µM
- TGI [19]: > 100 µM
- TGI [20]: > 100 µM
- TGI [21]: > 100 µM
- TGI [22]: > 100 µM
- TGI [23]: > 100 µM
- TGI [24]: > 100 µM
- TGI [25]: > 100 µM
- TGI [26]: > 100 µM
- TGI [27]: > 100 µM
- TGI [28]: > 100 µM
- TGI [29]: > 100 µM
- TGI [30]: > 100 µM
- TGI [31]: > 100 µM
- TGI [32]: > 100 µM
- TGI [33]: > 100 µM
- TGI [34]: > 100 µM
- TGI [35]: > 100 µM
- TGI [36]: > 100 µM
- TGI [37]: > 100 µM
- TGI [38]: > 100 µM
- TGI [39]: > 100 µM
- TGI [40]: > 100 µM
- TGI [41]: > 100 µM
- TGI [42]: > 100 µM
- TGI [43]: > 100 µM
- TGI [44]: > 100 µM
- TGI [45]: > 100 µM
- TGI [46]: > 100 µM
- TGI [47]: > 100 µM
- TGI [48]: > 100 µM
- TGI [49]: > 92.2 µM
- TGI [50]: > 100 µM
- TGI [51]: > 100 µM
- TGI [52]: > 100 µM
- TGI [53]: > 100 µM
- TGI [54]: > 100 µM
- TGI [55]: > 100 µM
- TGI [56]: > 100 µM

SMILES: O=S(=O)(O)c1ccc(-c2c3nc(c(-c4ccc(S(=O)(=O)O)cc4)c4ccc([nH]4)c(-c4ccc(S(=O)(=O)O)cc4)c4nc(c(-c5ccc(S(=O)(=O)O)cc5)c5ccc2[nH]5)C=C4)C=C3)cc1
- TGI [57]: > 100 µM
- TGI [1]: > 100 µM
- TGI [2]: > 100 µM
- TGI [58]: > 100 µM
- TGI [59]: 74.5 µM
- TGI [3]: > 100 µM
- TGI [4]: 79.9 µM and > 100 µM
- TGI [5]: > 100 µM
- TGI [6]: > 100 µM
- TGI [60]: > 100 µM
- TGI [7]: > 100 µM
- TGI [61]: > 100 µM
- TGI [8]: > 100 µM
- TGI [9]: > 100 µM
- TGI [10]: > 100 µM
- TGI [11]: > 100 µM
- TGI [12]: > 100 µM
- TGI [13]: > 100 µM
- TGI [14]: > 100 µM
- TGI [15]: > 100 µM and 76.8 µM
- TGI [62]: > 100 µM
- TGI [16]: > 100 µM
- TGI [17]: > 100 µM
- TGI [18]: > 100 µM
- TGI [19]: > 100 µM
- TGI [20]: > 100 µM
- TGI [21]: > 100 µM
- TGI [63]: > 100 µM
- TGI [64]: > 100 µM
- TGI [22]: > 100 µM
- TGI [23]: > 100 µM
- TGI [24]: > 100 µM
- TGI [65]: > 100 µM
- TGI [66]: > 100 µM
- TGI [25]: 12.8 µM and > 100 µM
- TGI [26]: 93.6 µM
- TGI [27]: > 100 µM
- TGI [28]: > 100 µM
- TGI [29]: > 100 µM
- TGI [30]: > 100 µM
- TGI [31]: > 100 µM
- TGI [32]: > 100 µM
- TGI [33]: > 100 µM
- TGI [34]: > 100 µM
- TGI [67]: > 100 µM
- TGI [37]: > 100 µM
- TGI [38]: 96.2 µM and 85.3 µM
- TGI [68]: > 100 µM
- TGI [39]: > 100 µM
- TGI [40]: > 100 µM
- TGI [41]: > 100 µM
- TGI [42]: > 100 µM
- TGI [43]: > 100 µM and 73.4 µM
- TGI [44]: > 100 µM
- TGI [45]: > 100 µM
- TGI [46]: > 100 µM
- TGI [48]: > 100 µM
- TGI [49]: > 100 µM and 55.1 µM
- TGI [50]: > 100 µM
- TGI [69]: > 100 µM
- TGI [51]: > 100 µM
- TGI [70]: > 100 µM
- TGI [71]: 73.9 µM and > 100 µM
- TGI [52]: > 100 µM
- TGI [53]: > 100 µM
- TGI [54]: > 100 µM
- TGI [55]: > 100 µM and 54.8 µM
- TGI [56]: > 100 µM

SMILES: Oc1c(CNCCCN2CCCC2)cc(Cl)c2cccnc12
- TGI [1]: 29.9 µM
- TGI [2]: 11.3 µM
- TGI [3]: 12.5 µM
- TGI [4]: 13.6 µM
- TGI [5]: 15.2 µM
- TGI [6]: 15 µM
- TGI [60]: 9.24 µM
- TGI [7]: 10.4 µM
- TGI [8]: 12.4 µM
- TGI [9]: 10.2 µM
- TGI [10]: 12.8 µM
- TGI [11]: 16.2 µM
- TGI [12]: 5.91 µM
- TGI [13]: 20.6 µM
- TGI [14]: 7.24 µM
- TGI [15]: 33.7 µM
- TGI [16]: 17.3 µM
- TGI [17]: 20.7 µM
- TGI [18]: 7.38 µM
- TGI [19]: 28.8 µM
- TGI [20]: 14.4 µM
- TGI [21]: 15.3 µM
- TGI [22]: 9.61 µM
- TGI [23]: 17.4 µM
- TGI [24]: 15.9 µM
- TGI [25]: 11.7 µM
- TGI [26]: 19.2 µM
- TGI [27]: 23.9 µM
- TGI [28]: 10.6 µM
- TGI [29]: 12.4 µM
- TGI [30]: 7.68 µM
- TGI [31]: 11.9 µM
- TGI [32]: 16.9 µM
- TGI [33]: 8.37 µM
- TGI [34]: 15.7 µM
- TGI [35]: 9.18 µM
- TGI [36]: 6.32 µM
- TGI [37]: 16.3 µM
- TGI [38]: 25.2 µM
- TGI [39]: 18.4 µM
- TGI [40]: 5.49 µM
- TGI [41]: 10.1 µM
- TGI [42]: 26.2 µM
- TGI [43]: 23.6 µM
- TGI [44]: 5.77 µM
- TGI [45]: 15 µM
- TGI [46]: 24.6 µM
- TGI [47]: 4.1 µM
- TGI [48]: > 100 µM
- TGI [49]: 36.3 µM
- TGI [50]: 33.5 µM
- TGI [51]: 17.1 µM
- TGI [52]: 17 µM
- TGI [53]: 24.2 µM
- TGI [54]: 5.79 µM
- TGI [55]: 21.3 µM
- TGI [56]: 15.2 µM
